From ChEMBL document CHEMBL3608229, “Saccharothrixones A-D, Tetracenomycin-Type Polyketides from the Marine-Derived Actinomycete Saccharothrix sp. 10-10” (J Nat Prod, 2015)

Columns and labels:
[1] = system: Staphylococcus aureus; test: Antibacterial activity against methicillin-susceptible Staphylococcus aureus 15 after 18 hrs by agar dilution method; format: functional; conditions: Staphylococcus aureus, 15, 18 h
[2] = system: Enterococcus faecalis; test: Antibacterial activity against vancomycin-resistant Enterococcus faecalis ATCC 51299 after 18 hrs by agar dilution method; format: functional; conditions: ATCC 51299, 18 h
[3] = system: Enterococcus faecalis; test: Antibacterial activity against vancomycin-resistant Enterococcus faecalis 09-9 after 18 hrs by agar dilution method; format: functional; conditions: 09-9, 18 h
[4] = system: Proteus vulgaris; test: Antibacterial activity against beta-lactamase producing Proteus vulgaris ATCC 29905 after 18 hrs by agar dilution method; format: functional; conditions: ATCC 29905, 18 h
[5] = system: Klebsiella pneumoniae; test: Antibacterial activity against NDM-1 producing Klebsiella pneumoniae ATCC BAA-2146 after 18 hrs by agar dilution method; format: functional; conditions: ATCC BAA-2146, 18 h
[6] = system: Staphylococcus epidermidis; test: Antibacterial activity against methicillin-susceptible Staphylococcus epidermidis ATCC 12228 after 18 hrs by agar dilution method; format: functional; conditions: ATCC 12228, 18 h
[7] = system: Enterococcus faecium; test: Antibacterial activity against vancomycin-resistant Enterococcus faecium 12-1 after 18 hrs by agar dilution method; format: functional; conditions: 12-1, 18 h
[8] = system: Morganella morganii; test: Antibacterial activity against beta-lactamase producing Morganella morganii ATCC 25830 after 18 hrs by agar dilution method; format: functional; conditions: ATCC 25830, 18 h
[9] = system: Staphylococcus aureus; test: Antibacterial activity against methicillin-resistant Staphylococcus aureus ATCC 33591 after 18 hrs by agar dilution method; format: functional; conditions: ATCC 33591, 18 h
[10] = system: Staphylococcus epidermidis; test: Antibacterial activity against methicillin-resistant Staphylococcus epidermidis 12-6 after 18 hrs by agar dilution method; format: functional; conditions: 12-6, 18 h
[11] = system: Enterococcus faecalis; test: Antibacterial activity against vancomycin-resistant Enterococcus faecalis 12-5 after 18 hrs by agar dilution method; format: functional; conditions: 12-5, 18 h
[12] = system: HepG2; test: Cytotoxicity against human HepG2 cells assessed as growth inhibition after 48 hrs by sulforhodamine B assay; format: functional, cell-based; conditions: HepG2, 48 h
[13] = system: Klebsiella pneumoniae; test: Antibacterial activity against extended spectrum beta-lactamase producing Klebsiella pneumoniae ATCC 700603 after 18 hrs by agar dilution method; format: functional; conditions: ATCC 700603, 18 h
[14] = system: Pseudomonas aeruginosa; test: Antibacterial activity against beta-lactamase producing Pseudomonas aeruginosa ATCC 27853 after 18 hrs by agar dilution method; format: functional; conditions: ATCC 27853, 18 h
[15] = system: Escherichia coli; test: Antibacterial activity against beta-lactamase producing Escherichia coli ATCC 25922 after 18 hrs by agar dilution method; format: functional; conditions: ATCC 25922, 18 h
[16] = system: Enterococcus faecium; test: Antibacterial activity against vancomycin-resistant Enterococcus faecium 12-3 after 18 hrs by agar dilution method; format: functional; conditions: 12-3, 18 h
[17] = system: Staphylococcus aureus; test: Antibacterial activity against methicillin-resistant Staphylococcus aureus 12-33 after 18 hrs by agar dilution method; format: functional; conditions: 12-33, 18 h
[18] = system: Staphylococcus aureus; test: Antibacterial activity against methicillin-resistant Staphylococcus aureus 12-28 after 18 hrs by agar dilution method; format: functional; conditions: 12-28, 18 h
[19] = system: Enterococcus faecalis; test: Antibacterial activity against vancomycin-susceptible Enterococcus faecalis ATCC 29212 after 18 hrs by agar dilution method; format: functional; conditions: ATCC 29212, 18 h
[20] = system: MCF7; test: Cytotoxicity against human MCF7 cells assessed as growth inhibition after 48 hrs by sulforhodamine B assay; format: functional, cell-based; conditions: MCF7, 48 h
[21] = system: Acinetobacter calcoaceticus; test: Antibacterial activity against beta-lactamase producing Acinetobacter calcoaceticus ATCC 19606 after 18 hrs by agar dilution method; format: functional; conditions: ATCC 19606, 18 h
[22] = system: K562; test: Cytotoxicity against human K562 cells assessed as growth inhibition after 48 hrs by sulforhodamine B assay; format: functional, cell-based; conditions: K562, 48 h
[23] = system: Staphylococcus epidermidis; test: Antibacterial activity against methicillin-resistant Staphylococcus epidermidis 12-8 after 18 hrs by agar dilution method; format: functional; conditions: 12-8, 18 h
[24] = system: Staphylococcus aureus; test: Antibacterial activity against methicillin-susceptible Staphylococcus aureus ATCC 29213 after 18 hrs by agar dilution method; format: functional; conditions: ATCC 29213, 18 h
[25] = system: Enterococcus faecium; test: Antibacterial activity against vancomycin-resistant Enterococcus faecium ATCC 700221 after 18 hrs by agar dilution method; format: functional; conditions: ATCC 700221, 18 h

| Compound | MIC [1] | MIC [2] | MIC [3] | MIC [4] | MIC [5] | MIC [6] | MIC [7] | MIC [8] | MIC [9] | MIC [10] | MIC [11] | IC50 [12] | MIC [14] | MIC [15] | MIC [16] | MIC [17] | MIC [18] | MIC [19] | IC50 [20] | IC50 [22] | also measured |
| --- | --- | --- | --- | --- | --- | --- | --- | --- | --- | --- | --- | --- | --- | --- | --- | --- | --- | --- | --- | --- | --- |
| COC(=O)c1c(OC)cc2cc3c(c(O)c2c1C)C(=O)O[C@@H]3[C@@]1(O)[C@H](O)C(OC)=CC(=O)[C@@H]1O | > 64 µg/mL | > 64 µg/mL | > 64 µg/mL | > 64 µg/mL | > 64 µg/mL | > 64 µg/mL | > 64 µg/mL | > 64 µg/mL | > 64 µg/mL | > 64 µg/mL | > 64 µg/mL | > 100 µM | > 64 µg/mL | > 64 µg/mL | > 64 µg/mL | > 64 µg/mL | > 64 µg/mL | > 64 µg/mL | > 100 µM | > 100 µM | MIC [13]: > 64 µg/mL; MIC [21]: > 64 µg/mL; MIC [23]: > 64 µg/mL; MIC [24]: > 64 µg/mL; MIC [25]: > 64 µg/mL |
| COC(=O)c1c(OC)cc2cc3c(c(O)c2c1C)C(=O)O[C@@H]3[C@@]1(O)[C@H](O)C(OC)=CC(=O)[C@@H]1OC | > 64 µg/mL | > 64 µg/mL | > 64 µg/mL | > 64 µg/mL | > 64 µg/mL | > 64 µg/mL | > 64 µg/mL | > 64 µg/mL | > 64 µg/mL | > 64 µg/mL | > 64 µg/mL | > 100 µM | > 64 µg/mL | > 64 µg/mL | > 64 µg/mL | > 64 µg/mL | > 64 µg/mL | > 64 µg/mL | > 100 µM | > 100 µM | MIC [13]: > 64 µg/mL; MIC [21]: > 64 µg/mL; MIC [23]: > 64 µg/mL; MIC [24]: > 64 µg/mL; MIC [25]: > 64 µg/mL |
| COC(=O)c1c(OC)cc2cc3c(c(O)c2c1C)C(=O)O[C@H]3[C@@]1(O)[C@H](O)C(OC)=CC(=O)[C@H]1OC | > 64 µg/mL | > 64 µg/mL | > 64 µg/mL | > 64 µg/mL | > 64 µg/mL | > 64 µg/mL | > 64 µg/mL | > 64 µg/mL | > 64 µg/mL | > 64 µg/mL | > 64 µg/mL | > 100 µM | > 64 µg/mL | > 64 µg/mL | > 64 µg/mL | > 64 µg/mL | > 64 µg/mL | > 64 µg/mL | > 100 µM | > 100 µM | MIC [13]: > 64 µg/mL; MIC [21]: > 64 µg/mL; MIC [23]: > 64 µg/mL; MIC [24]: > 64 µg/mL; MIC [25]: > 64 µg/mL |
| COC(=O)c1c(OC)cc2cc3c(c(O)c2c1C)C(=O)[C@@]1(O)C(OC)=CC(=O)[C@H](OC)[C@@]1(O)C3=O | > 64 µg/mL | > 64 µg/mL | > 64 µg/mL | > 64 µg/mL | > 64 µg/mL | > 64 µg/mL | > 64 µg/mL | > 64 µg/mL | > 64 µg/mL | > 64 µg/mL | > 64 µg/mL | 7.5 µM | > 64 µg/mL | > 64 µg/mL | > 64 µg/mL | > 64 µg/mL | > 64 µg/mL | > 64 µg/mL | 16.2 µM | 20.8 µM | MIC [13]: > 64 µg/mL; MIC [21]: > 64 µg/mL; MIC [23]: > 64 µg/mL; MIC [24]: > 64 µg/mL; MIC [25]: > 64 µg/mL |
| COC(=O)c1c(OC)cc2cc3c(c(O)c2c1C)C(=O)[C@]1(OC)C(=O)C=C(OC)[C@@H](O)[C@]1(O)C3=O | – | – | – | – | – | – | – | – | – | – | – | 1.6 µM | – | – | – | – | – | – | 1.5 µM | 5.2 µM | – |
| COc1cccc2c1C(=O)c1c(O)c3c(c(O)c1C2=O)C[C@@](O)(C(=O)CO)C[C@@H]3O[C@H]1C[C@H](N)[C@H](O)[C@H](C)O1 [DOXORUBICIN] | – | – | – | – | – | – | – | – | – | – | – | 5.4 µM | – | – | – | – | – | – | – | 10.9 µM | – |
| C[C@H]1COc2c(N3CCN(C)CC3)c(F)cc3c(=O)c(C(=O)O)cn1c23.C[C@H]1COc2c(N3CCN(C)CC3)c(F)cc3c(=O)c(C(=O)O)cn1c23.O [LEVOFLOXACIN] | 0.25 µg/mL | 0.5 µg/mL | > 128 µg/mL | ≤ 0.03 µg/mL | > 128 µg/mL | 0.25 µg/mL | 32 µg/mL | 0.06 µg/mL | 0.25 µg/mL | 0.5 µg/mL | 0.5 µg/mL | – | 0.5 µg/mL | ≤ 0.03 µg/mL | 64 µg/mL | 128 µg/mL | 0.25 µg/mL | 0.5 µg/mL | – | – | MIC [21]: 0.5 µg/mL; MIC [23]: 8 µg/mL; MIC [24]: 0.25 µg/mL; MIC [25]: 128 µg/mL |
